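How tested: cells in 96-well plates exposed to compound for 48 hours at five concentrations. Abbreviation: GI50, concentration required for 50% inhibition of growth. At the TGI there is no net growth.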
Tests used:
Test in all cases: NCI anticancer screen, dose series, 48 h
CCRF-CEM leukemia = tested on: CCRF-CEM leukemia
KM12 colon = tested on: KM12 colon
786-0 renal = tested on: 786-0 renal
HCT-15 colon = tested on: HCT-15 colon
OVCAR-4 ovarian = tested on: OVCAR-4 ovarian
MALME-3M melanoma = tested on: MALME-3M melanoma
ACHN renal = tested on: ACHN renal
A549 NSCLC = tested on: A549 NSCLC
UO-31 renal = tested on: UO-31 renal
HL-60(TB) leukemia = tested on: HL-60(TB) leukemia
COLO 205 colon = tested on: COLO 205 colon
UACC-257 melanoma = tested on: UACC-257 melanoma
NCI/ADR-RES ovarian = tested on: NCI/ADR-RES ovarian
HOP-92 NSCLC = tested on: HOP-92 NSCLC
HCC-2998 colon = tested on: HCC-2998 colon
RXF 393 renal = tested on: RXF 393 renal
NCI-H522 lung = tested on: NCI-H522 lung
SR leukemia = tested on: SR leukemia
UACC-62 melanoma = tested on: UACC-62 melanoma
SK-MEL-5 melanoma = tested on: SK-MEL-5 melanoma
A498 renal = tested on: A498 renal
NCI-H460 lung = tested on: NCI-H460 lung
T-47D breast = tested on: T-47D breast
SW-620 colon = tested on: SW-620 colon
NCI-H226 lung = tested on: NCI-H226 lung
IGROV1 ovarian = tested on: IGROV1 ovarian
SF-539 CNS = tested on: SF-539 CNS
NCI-H23 lung = tested on: NCI-H23 lung
HCT-116 colon = tested on: HCT-116 colon
BT-549 breast = tested on: BT-549 breast
HS 578T breast = tested on: HS 578T breast
LOX IMVI melanoma = tested on: LOX IMVI melanoma
EKVX NSCLC = tested on: EKVX NSCLC
OVCAR-5 ovarian = tested on: OVCAR-5 ovarian
RPMI-8226 leukemia = tested on: RPMI-8226 leukemia
MOLT-4 leukemia = tested on: MOLT-4 leukemia
SN12C renal = tested on: SN12C renal
MDA-MB-435 = tested on: MDA-MB-435
SNB-75 CNS = tested on: SNB-75 CNS
TK-10 renal = tested on: TK-10 renal
HT29 colon = tested on: HT29 colon
SNB-19 CNS = tested on: SNB-19 CNS
SF-295 CNS = tested on: SF-295 CNS
CAKI-1 renal = tested on: CAKI-1 renal
DU-145 prostate = tested on: DU-145 prostate
MCF7 breast = tested on: MCF7 breast
MDA-MB-231 breast = tested on: MDA-MB-231 breast
OVCAR-3 ovarian = tested on: OVCAR-3 ovarian
SK-MEL-2 melanoma = tested on: SK-MEL-2 melanoma
HOP-62 NSCLC = tested on: HOP-62 NSCLC
K-562 leukemia = tested on: K-562 leukemia
SF-268 CNS = tested on: SF-268 CNS
M14 melanoma = tested on: M14 melanoma
PC-3 prostate = tested on: PC-3 prostate
SK-MEL-28 melanoma = tested on: SK-MEL-28 melanoma

O=c1c2cccc(F)c2sc2c(NCCCNCCO)nc3ccccc3c12
GI50 (CCRF-CEM leukemia): 1410 nM
TGI (CCRF-CEM leukemia): 3870 nM
GI50 (KM12 colon): 1610 nM
TGI (KM12 colon): 3040 nM
GI50 (786-0 renal): 1440 nM
TGI (786-0 renal): 2840 nM
GI50 (HCT-15 colon): 1250 nM
TGI (HCT-15 colon): 2650 nM
GI50 (OVCAR-4 ovarian): 1770 nM
TGI (OVCAR-4 ovarian): 3640 nM
GI50 (MALME-3M melanoma): 1610 nM
TGI (MALME-3M melanoma): 3120 nM
GI50 (ACHN renal): 1280 nM
TGI (ACHN renal): 2540 nM
GI50 (A549 NSCLC): 1130 nM
TGI (A549 NSCLC): 3080 nM
GI50 (UO-31 renal): 1100 nM
TGI (UO-31 renal): 2350 nM
GI50 (HL-60(TB) leukemia): 1920 nM
TGI (HL-60(TB) leukemia): 3910 nM
GI50 (COLO 205 colon): 1610 nM
TGI (COLO 205 colon): 3960 nM
GI50 (UACC-257 melanoma): 2030 nM
TGI (UACC-257 melanoma): 3990 nM
GI50 (NCI/ADR-RES ovarian): 1520 nM
TGI (NCI/ADR-RES ovarian): 3060 nM
GI50 (HOP-92 NSCLC): 1420 nM
TGI (HOP-92 NSCLC): 5150 nM
GI50 (HCC-2998 colon): 1610 nM
TGI (HCC-2998 colon): 3190 nM
GI50 (RXF 393 renal): 1370 nM
TGI (RXF 393 renal): 2730 nM
GI50 (NCI-H522 lung): 1760 nM
TGI (NCI-H522 lung): 3690 nM
GI50 (SR leukemia): 984 nM
TGI (SR leukemia): 4850 nM
GI50 (UACC-62 melanoma): 1770 nM
TGI (UACC-62 melanoma): 3260 nM
GI50 (SK-MEL-5 melanoma): 1710 nM
TGI (SK-MEL-5 melanoma): 3090 nM
GI50 (A498 renal): 1500 nM
TGI (A498 renal): 2880 nM
GI50 (NCI-H460 lung): 653 nM
TGI (NCI-H460 lung): 1950 nM
GI50 (T-47D breast): 1760 nM
TGI (T-47D breast): 4100 nM
GI50 (SW-620 colon): 1220 nM
TGI (SW-620 colon): 2620 nM
GI50 (NCI-H226 lung): 1700 nM
TGI (NCI-H226 lung): 3350 nM
GI50 (IGROV1 ovarian): 1230 nM
TGI (IGROV1 ovarian): 2650 nM
GI50 (SF-539 CNS): 1650 nM
TGI (SF-539 CNS): 3050 nM
GI50 (NCI-H23 lung): 1540 nM
TGI (NCI-H23 lung): 2990 nM
GI50 (HCT-116 colon): 1390 nM
TGI (HCT-116 colon): 2780 nM
GI50 (BT-549 breast): 6160 nM
TGI (BT-549 breast): 19800 nM
GI50 (HS 578T breast): 1550 nM
TGI (HS 578T breast): 3530 nM
GI50 (LOX IMVI melanoma): 1130 nM
TGI (LOX IMVI melanoma): 2380 nM
GI50 (EKVX NSCLC): 1290 nM
TGI (EKVX NSCLC): 2640 nM
GI50 (OVCAR-5 ovarian): 1650 nM
TGI (OVCAR-5 ovarian): 3070 nM
GI50 (RPMI-8226 leukemia): 1760 nM
TGI (RPMI-8226 leukemia): 3990 nM
GI50 (MOLT-4 leukemia): 698 nM
TGI (MOLT-4 leukemia): 2430 nM
GI50 (SN12C renal): 1440 nM
TGI (SN12C renal): 2900 nM
GI50 (MDA-MB-435): 1630 nM
TGI (MDA-MB-435): 3000 nM
GI50 (SNB-75 CNS): 1560 nM
TGI (SNB-75 CNS): 2990 nM
GI50 (TK-10 renal): 1960 nM
TGI (TK-10 renal): 3570 nM
GI50 (HT29 colon): 1510 nM
TGI (HT29 colon): 3250 nM
GI50 (SNB-19 CNS): 1650 nM
TGI (SNB-19 CNS): 3170 nM
GI50 (SF-295 CNS): 1760 nM
TGI (SF-295 CNS): 3190 nM
GI50 (CAKI-1 renal): 1420 nM
TGI (CAKI-1 renal): 2730 nM
GI50 (DU-145 prostate): 1220 nM
TGI (DU-145 prostate): 2480 nM
GI50 (MCF7 breast): 1140 nM
TGI (MCF7 breast): 2530 nM
GI50 (MDA-MB-231 breast): 1260 nM
TGI (MDA-MB-231 breast): 2650 nM
GI50 (OVCAR-3 ovarian): 1700 nM
TGI (OVCAR-3 ovarian): 3120 nM
GI50 (SK-MEL-2 melanoma): 1970 nM
TGI (SK-MEL-2 melanoma): 3950 nM
GI50 (HOP-62 NSCLC): 1540 nM
TGI (HOP-62 NSCLC): 3590 nM
GI50 (K-562 leukemia): 1750 nM
TGI (K-562 leukemia): 4640 nM
GI50 (SF-268 CNS): 1550 nM
TGI (SF-268 CNS): 3120 nM
GI50 (M14 melanoma): 1530 nM
TGI (M14 melanoma): 2980 nM
GI50 (PC-3 prostate): 1660 nM
TGI (PC-3 prostate): 3310 nM
GI50 (SK-MEL-28 melanoma): 1860 nM
TGI (SK-MEL-28 melanoma): 3310 nM

— PubChem BioAssay (NCI)
